Assay results from patent US5709864A, “Cosmetic or pharmaceutical and particularly dermatological, composition containing an extract of tephrosia, particularly Tephrosia purpurea” (priority 1993, dated 1998).

System: adenylate cyclase
Assay: stimulation of adenylate cyclase activity in purified fibroblast (3T3 F442A) cell membranes, AMPc measured by radioimmunoassay
Format: biochemical, mouse
Settings: at 0.05 g/l, 37° C., 3T3 F442A fibroblast membranes; basal activity without effector = 100%
Protocol: Cell membranes are initially obtained by culturing to confluence fibroblasts of the 3T3 F442A line commercially available from Flow Laboratories.
These fibroblast cell membranes which constitute an enzyme source, are incubated in a reaction medium in the presence of ATP at 37° C. for a predefined length of time.
The resulting AMPc is measured by radioimmunoassay. Taking the basal activity, i.e. activity without an effector, as being 100%, it is possible to determine the influence of an effector on the enzyme system.
Cell membranes are purified from the fibroblast in culture.
In this context, it should be observed that purification of cell membranes releases numerous enzymes into the assay medium. Two of these enzymes are undesirable in implementing the test. They comprise firstly Na^+, K^+ ATPase which transform ATP into adenosine diphosphate, and secondly phosphodiesterase 3',5'-AMPc which degrades cyclic AMP into AMP. Thus, in order to obtain reliable results from the test, it is essential to inhibit those two enzymes. The first is inhibited by means of ouabain, and the second by means of theophylline.
The reaction medium is thus constituted by:
50 μl of a 5 mM solution of […] (ATP) as substrate;
100 μl of a 20 mM solution of ouabain as an inhibitor of ATPase;
100 μl of a 20 mM solution of theophylline as an inhibitor of phosphodiesterase; and […]

With C=C[C@@]1(C)CC(=O)[C@]2(O)[C@@]3(C)[C@@H](O)CCC(C)(C)[C@@H]3[C@H](O)[C@H](OC(C)=O)[C@@]2(C)O1 [forskoline] the “% activity (adenylate cyclase; basal activity = 100)” value was 225%.
